Data reported in patent US20070142395A1, “Treatment of sexual dysfunction with 1-[3-[4-(3-chlorophenyl)-1-piperazinyl]propyl]-5-methoxy-3,4-dihydro-2(1H)-quinolone or salt thereof” (Vela Pharmaceuticals, Inc., priority 2005, published 2007).
Where “and” joins values, the source holds several entries; their conditions need not be identical. Equal values may be shown once. Marks after values point to notes of the source that are not given here.

Assays:
[1] = tested on: patients with MDD; experiment: Changes in Sexual Function Questionnaire (CSFQ) scores, double-blind placebo-controlled clinical study; format: in vivo, Humans; set-up: key to CSFQ Desire/Interest score / CSFQ Arousal/Excitement score / CSFQ Orgasm/Completion score / CSFQ Total Score / CSFQ Pleasure score / CSFQ Desire/Frequency score: CSFQ items on 5-point scale; higher = more favorable sexual function
Experimental: (§1) A double-blind, randomized, placebo-controlled, parallel-group study was performed to evaluate the efficacy, safety and tolerability of OPC-14523 in patients with MDD. The patients selected for participation in the trial had to meet DSM-IV-TR criteria for MDD (296.2x or 296.3x; diagnosis via MINI) and had had symptoms of depression for at least 2 months before the start of the double-blind treatment. Among other drugs prohibited during the study, patients were prohibited from taking drugs used to enhance sexual function, including, but not limited to, sildenafil, tadalafil and vardenafil, or taking psychopharmacologic drugs.
There were 131 patients assigned to receive OPC-14523 at the start of the study. One hundred twenty seven (127) of these patients took at least one dose of OPC-14523. There were 137 patients assigned to receive placebo at the start of the study. One hundred thirty three (133) of these patients took at least one dose of placebo.
Each patient was expected to participate for up to 10 weeks. The 10 weeks included: i) a 4- to 10-day screening period, during which potential participants were administered placebo in a single-blind manner; ii) an 8-week double-blind treatment period; and iii) a 4- to 10- day post-treatment visit period. Baseline evaluations, including assessment of sexual function, were conducted on Day −1. The next day, Day 1, the double-blind medication was begun. All treatment was on an outpatient basis.
The dosages studied were 5 mg BID OPC-14523 (10 mg total daily dose of immediate release tablet of Example 1) and placebo. The drugs were taken after meals in the morning and in the evening, about 12 hours apart.
Data on sexual function were collected using the Changes in Sexual Function Questionnaire (CSFQ). The CSFQ is a 14-item self-report measure of sexual functioning vis-â-vis experiences of pleasure, desire, arousal, and orgasm, with a 5-point response option for each item. The 14-item validated CSFQ was developed from a questionnaire comprising 35 and 36 items for female and male respondents, respectively (Clayton et al., Psychopharmacol Bull. 33(4):731-45 (1997) and Clayton et al., Psychopharmacol Bull. 33(4):747-53 (1997), each incorporated herein by reference in its entirety). The CSFQ has also been independently validated (Bobes et al., J Sex Marital Ther. 26(2): 119-31(2000)). The 14-item CSFQ includes items 8, 11, 14, 19-24 from the interview version of the CSFQ (“CSFQ-I”); Clayton et al., Psychopharmacol Bull. 33(4):731-45 (1997)). The CSFQ differs for men and women, reflecting some variation in wording of items. Males were given the male clinical version, CSFQ-M-C, and women were given the female clinical version, CSFQ-F-C. CSFQ-F-C includes items 25, 27, 28, 30 and 31 from the questions for women on the CSFG-I. CSFQ-M-C includes items 28-32 from the questions for men on the CSFQ-I, as well as item 25 from the questions for women.
The 14-item CSFQ has subscales for sexual pleasure (1 item), desire/frequency (2 items), desire/interest (3 items), arousal (3 items), and orgasm (3 items). In addition, a 14-item total score may be calculated. Higher scores are indicative of more favorable sexual functioning. Threshold scores for total and sub-scales have been defined. A score below the threshold score indicates dysfunction.
Results were scored and analyzed according to the CSFQ instruction manual. The p-values resulted from an analysis of covariance (ANCOVA) linear model where the dependent variable is the change from baseline and independent variables are site effect, treatment effect, and baseline. The p-value is from the Type III sums of squares t-test for the hypothesis that the treatment groups are the same versus the alternative they are different. Last observation carry-forward (LOCF) analysis was used as indicated. In the LOCF analysis, for patients who dropped out before completion of the study, the last observations were carried forward to the final time point. […]

[2] = tested on: patients with MDD; experiment: Efficacy on MDD, main indication of the clinical trial; format: in vivo, Humans; details: main indication in the clinical trial; 5 mg BID, 8 weeks
Experimental: as §1

[3] = all patients (men and women), Baseline, before treatment
[4] = all patients (men and women), Day 28, 5 mg BID, LOCF
[5] = all patients (men and women), Day 56, 5 mg BID, LOCF
[6] = men only, Baseline, before treatment
[7] = men only, Day 28, 5 mg BID, LOCF
[8] = men only, Day 56, 5 mg BID, LOCF
[9] = women only, Baseline, before treatment
[10] = women only, Day 28, 5 mg BID, LOCF
[11] = women only, Day 56, 5 mg BID, LOCF

SMILES: COc1cccc2c1CCC(=O)N2CCCN1CCN(c2cccc(Cl)c2)CC1 [OPC-14523, 1-[3-[4-(3-chlorophenyl)-1-piperazinyl]propyl]-5-methoxy-3,4-dihydro-2(1H)-quinolone]
- CSFQ Arousal/Excitement score [1, 3]: 8.97
- CSFQ Desire/Frequency score [1, 3]: 5.13
- CSFQ Desire/Interest score [1, 3]: 7.30
- CSFQ Orgasm/Completion score [1, 3]: 9.50
- CSFQ Pleasure score [1, 3]: 2.06
- CSFQ Total Score [1, 3]: 41.9
- CSFQ Arousal/Excitement score [1, 4]: 9.24
- CSFQ Desire/Frequency score [1, 4]: 5.39
- CSFQ Desire/Interest score [1, 4]: 7.66
- CSFQ Orgasm/Completion score [1, 4]: 9.56
- CSFQ Pleasure score [1, 4]: 2.41**
- CSFQ Total Score [1, 4]: 43.4
- CSFQ Arousal/Excitement score [1, 5]: 9.55
- CSFQ Desire/Frequency score [1, 5]: 5.57*
- CSFQ Desire/Interest score [1, 5]: 7.94*
- CSFQ Orgasm/Completion score [1, 5]: 9.77
- CSFQ Pleasure score [1, 5]: 2.51 (p = 0.11)
- CSFQ Total Score [1, 5]: 44.4 (p = 0.05)
- sexual function overall, CSFQ Total Scores (in words) ([1]; all patients, compared with placebo, Day 28 and/or Day 56): significantly improved sexual function overall
- sexual desire (in words) ([1]; both men and women): increased sexual desire
- sexual pleasure and sexual arousal and excitement (in words) ([1]; men): strong trend of improved sexual pleasure and sexual arousal and excitement
- CSFQ Arousal/Excitement score [1, 6]: 10.5 and 10.48
- CSFQ Desire/Frequency score [1, 6]: 5.8 and 5.77
- CSFQ Desire/Interest score [1, 6]: 8.2 and 8.21
- CSFQ Orgasm/Completion score [1, 6]: 11.3 and 11.33
- CSFQ Pleasure score [1, 6]: 2.2 and 2.15
- CSFQ Total Score [1, 6]: 47.6
- CSFQ Arousal/Excitement score [1, 7]: 11.13 (p = 0.07)
- CSFQ Desire/Frequency score [1, 7]: 6.26*
- CSFQ Desire/Interest score [1, 7]: 8.94*
- CSFQ Orgasm/Completion score [1, 7]: 11.32
- CSFQ Pleasure score [1, 7]: 2.68***
- CSFQ Total Score [1, 7]: 50.1*
- CSFQ Arousal/Excitement score [1, 8]: 11.17 (p = 0.13)
- CSFQ Desire/Frequency score [1, 8]: 6.38*
- CSFQ Desire/Interest score [1, 8]: 8.91 (p = 0.07)
- CSFQ Orgasm/Completion score [1, 8]: 11.34
- CSFQ Pleasure score [1, 8]: 2.60 (p = 0.10)
- CSFQ Total Score [1, 8]: 50.2 (p = 0.12)
- sexual function overall (in words) ([1]; men, compared with placebo, Day 28 and/or Day 56): significantly improved sexual function overall
- sexual interest (in words) ([1]; men, p=0.07): improved sexual interest
- total CSFQ and every subscale vs placebo (in words) ([1]; summary): advantage over placebo
- CSFQ Arousal/Excitement score [1, 9]: 7.9 and 7.91
- CSFQ Desire/Frequency score [1, 9]: 4.7 and 4.68
- CSFQ Desire/Interest score [1, 9]: 6.7 and 6.66
- CSFQ Orgasm/Completion score [1, 9]: 8.2 and 8.21
- CSFQ Pleasure score [1, 9]: 2.0 and 1.99
- CSFQ Total Score [1, 9]: 37.8
- CSFQ Arousal/Excitement score [1, 10]: 7.91
- CSFQ Desire/Frequency score [1, 10]: 4.78
- CSFQ Desire/Interest score [1, 10]: 6.76
- CSFQ Orgasm/Completion score [1, 10]: 8.33
- CSFQ Pleasure score [1, 10]: 2.22
- CSFQ Total Score [1, 10]: 38.7
- CSFQ Arousal/Excitement score [1, 11]: 8.43
- CSFQ Desire/Frequency score [1, 11]: 5.01
- CSFQ Desire/Interest score [1, 11]: 7.26 (p = 0.08)
- CSFQ Orgasm/Completion score [1, 11]: 8.69
- CSFQ Pleasure score [1, 11]: 2.46
- CSFQ Total Score [1, 11]: 40.4
- sexual desire/interest (in words) ([1]; women, compared with placebo, Day 28 and/or Day 56): strong trend
- sexual interest (in words) ([1]; women, p=0.08): improved sexual interest
- effect on MDD [2]: did not demonstrate a statistically significant effect
